How the values were obtained:
[1] = biological target: T1, spermidine/spermine N^1 -acetyltransferase (Rattus norvegicus, UniProt Q6P9U6); assay: Cytosolic spermidine acetyltransferase assay ([14C]acetyl Coenzyme A, cellulose phosphate paper); format: biochemical; details: for relative effectiveness in inhibiting the acetylation of spermidine and spermine: inhibitors compared with one another; for inhibitory activity towards spermidine/spermine N^1 -acetyltransferase / potency relative to the sym-norspermidine derivative: FIG. 2
T1 construct: Cytosolic spermidine acetyltransferase activity was extracted from the livers of male Sprague-Dawley rats; from tissue; host or cells: liver of male Sprague-Dawley rats, 6 h after intraperitoneal carbon tetrachloride; cytosolic extract
Procedure: Spermidine acetyltransferase activity was assayed in a volume of 100 μl containing 100 μg of extract protein, 300 nmol spermidine, 0.8 nmol (40 nCi) [1^14 C] acetyl Coenzyme A and 10 μmol tris-HCl (pH 7.8). The reaction was allowed to proceed at 30° C. for 10 min and was terminated by the addition of 20 μl of 1M NH2 OH.HCl. Protein was precipitated by boiling the samples for 3 min and was removed by centrifugation. 50 μl of the supernatant was applied to a 2.2 cm diameter disc of cellulose phosphate paper and was allowed to dry. The discs were washed in a beaker five times with water and three times with ethanol.
Non-enzymatic blank values for both histone and spermidine acetylation assays were routinely obtained by incubations of all the reactants excluding enzyme in the appropriate buffer.

[2] = tested on: histone acetylation; details: mammalian cells; cited from earlier work
[3] = tested on: murine tumors; assay: Murine tumors, alone and in combination with three cytotoxic agents; format: in vivo
[4] = tested on: embryogenesis; assay: Fertility, implantation and embryonic development in treated mice; format: in vivo
[5] = tested on: Trypanosoma brucei brucei; assay: Replication of and infection by Trypanosoma brucei brucei; details: in vivo
[6] = tested on: tumor growth; assay: Experimental tumor models, tumor growth; format: in vivo; details: several experimental tumor models
[7] = tested on: Pneumocystis carinii; assay: Treatment of Pneumocystis carinii pneumonia; format: in vivo; details: opportunistic infection in the setting of AIDS
[8] = tested on: human prostate gland adenoma cells; assay: DNA replication and proliferation of human prostate gland adenoma cells in culture; format: cell-based
[9] = tested on: ventral prostate gland; assay: Prostate gland secretion, growth and regrowth in rats; format: in vivo
[10] = tested on: exoerythrocyctic infection (malaria); assay: Animal studies of malaria; format: in vivo
[11] = biological target: T1, spermidine/spermine N^1 -acetyltransferase; assay: Cytosolic spermidine acetyltransferase assay ([14C]acetyl Coenzyme A, cellulose phosphate paper); format: biochemical; details: highly purified spermidine/spermine N^1 -acetyltransferase; FIG. 1
[12] = tested on: rat hematoma cells; assay: DNA replication and proliferation of rat hematoma cells in culture; format: cell-based
[13] = female mice treated prior to copulation and up to 18 days after fecundation

T1 sequence (Q6P9U6 1-171): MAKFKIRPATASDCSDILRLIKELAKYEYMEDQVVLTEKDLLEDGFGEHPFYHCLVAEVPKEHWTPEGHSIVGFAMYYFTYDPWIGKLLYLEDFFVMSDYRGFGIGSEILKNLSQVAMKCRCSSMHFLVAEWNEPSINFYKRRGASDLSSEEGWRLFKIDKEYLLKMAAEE

NCCCN [1,3-diaminopropane]
relative effectiveness in inhibiting the acetylation of spermidine and spermine [1]: marginal superiority to putrescine

CC(C)(COP(=O)(O)OP(=O)(O)OC[C@H]1O[C@@H](n2cnc3c(N)ncnc32)[C@H](O)[C@@H]1OP(=O)(O)O)[C@@H](O)C(=O)NCCC(=O)NCCSCC(=O)NCCCNCCCCN [I, N-[2-(S-Coenzyme A)acetyl] spermidine amide]
inhibitory activity towards spermidine/spermine N^1 -acetyltransferase [1]: strong inhibitors | potency relative to the sym-norspermidine derivative [1]: more than an order of magnitude less potent

CC(C)(COP(=O)(O)OP(=O)(O)OC[C@H]1O[C@@H](n2cnc3c(N)ncnc32)[C@H](O)[C@@H]1OP(=O)(O)O)[C@@H](O)C(=O)NCCC(=O)NCCSCC(=O)NCCCCNCCCN [II, N-[2-(S-Coenzyme A)acetyl] spermidine amide]
inhibitory activity towards spermidine/spermine N^1 -acetyltransferase [1]: strong inhibitors | potency relative to the sym-norspermidine derivative [1]: more than an order of magnitude less potent

CC(C)(COP(=O)(O)OP(=O)(O)OC[C@H]1O[C@@H](n2cnc3c(N)ncnc32)[C@H](O)[C@@H]1OP(=O)(O)O)[C@@H](O)C(=O)NCCC(=O)NCCSCC(=O)NCCCNCCCCN [N-[2-(S-Coenzyme A)acetyl] spermidine amide]
histone acetylation [2]: inhibit histone acetylation

CC(C)(COP(=O)(O)OP(=O)(O)OC[C@H]1O[C@@H](n2cnc3c(N)ncnc32)[C@H](O)[C@@H]1OP(=O)(O)O)[C@@H](O)C(=O)NCCC(=O)NCCSCC(=O)NCCCNCCCN [N-[2-(S-Coenzyme A)acetyl] sym-norspermidine amide]
antitumor effect alone versus each cytotoxic drug ([3]; alone): superior to those of each cytotoxic drug | antitumor effect of combination with cytotoxic agents ([3]; combination with any of three cytotoxic agents): synegistic | implantation [4, 13]: no effect | subsequent embryonic development [4, 13]: totally inhibited | fertility ([4]; male and female mice treated prior to mating with untreated animals): no effect on fertility | T.b. brucei infection [5]: completely eliminating the infection | replication of Trypanosoma brucei brucei [5]: inhibits the replication | tumor growth [6]: Marked retardation or arrest of tumor growth | inhibition of the acetylation of spermidine ([1]; crude cytosolic extracts from livers of carbon tetrachloride treated rats, FIG. 1): very potent inhibitor | dependence of the inhibition on substrate concentration ([1]; no full kinetic analysis): greater when the assays were carried out at lower concentrations with either substrate | efficacy in Pneumocystis carinii pneumonia [7]: effective in treatment | DNA replication [8]: inhibits DNA replication | cell proliferation [8]: retards proliferation | androgen-induced prostatic regrowth ([9]; castrated rats): marked slowing | prostate gland secretion ([9]; rats): effectively inhibited | growth of the ventral prostate gland ([9]; rats, versus control group): significantly less than in the control group | efficacy against exoerythrocyctic infection [10]: effective therapeutic agent | inhibition of the acetylation of spermidine [11]: very potent inhibitor | DNA replication [12]: inhibits DNA replication | cell proliferation [12]: retards proliferation

CC(C)(COP(=O)(O)OP(=O)(O)OC[C@H]1O[C@@H](n2cnc3c(N)ncnc32)[C@H](O)[C@@H]1OP(=O)(O)O)[C@@H](O)C(=O)NCCC(=O)NCCSCC(=O)NCCCN [amide derived from 1,3-diaminopropane]
potency relative to the sym-norspermidine derivative [1]: much less active | inhibition relative to coenzyme A ([1]; FIG. 2C): marginally more inhibitory than coenzyme A

CC(C)(COP(=O)(O)OP(=O)(O)OC[C@H]1O[C@@H](n2cnc3c(N)ncnc32)[C@H](O)[C@@H]1OP(=O)(O)O)[C@@H](O)C(=O)NCCC(=O)NCCSCC(=O)NCCCCN [amide derived from putrescine]
potency relative to the sym-norspermidine derivative [1]: much less active

NCCCCN [putrescine]
relative effectiveness in inhibiting the acetylation of spermidine and spermine [1]: least effective

CC(C)(COP(=O)(O)OP(=O)(O)OC[C@H]1O[C@@H](n2cnc3c(N)ncnc32)[C@H](O)[C@@H]1OP(=O)(O)O)[C@@H](O)C(=O)NCCC(=O)NCCSCC(=O)NCCCCNCCCCN [sym-homospermidine derivative]
potency relative to the sym-norspermidine derivative [1]: ten times less active

NCCCCNCCCCN [sym-homospermidine]
relative effectiveness in inhibiting the acetylation of spermidine and spermine [1]: an order more effectiveness than the other two compounds

Reference: US4826968A, “S-alkylated coenzyme A with effect on polyamine acetylase” (Research Corporation, priority 1985, dated 1989)
